We go through one molecule from patent publication US9090625B2, “Therapeutic pyrazolyl thienopyridines” (Thesan Pharmaceuticals, Inc., priority 2006, dated 2015).

For orientation: IC50 means the midpoint of a concentration-inhibition curve. A lower IC50 goes with greater potency in that assay.

This assay deals with Smad binding element (SBE) luciferase reporter activity in TGFβ1 stimulated NIH-3T3 cells. The assay can be described thus: ALK-5 gene reporter assay: Smad binding element (SBE) luciferase reporter in TGFβ1 stimulated NIH-3T3 cells. The following applies: Mus musculus, NIH3T3. On the technique in general: A reporter such as luciferase makes a cellular process visible.

Molecule `CCc1cnn(-c2cccc(C)n2)c1-c1cc2cnccc2s1` [Example 4, 2-[4-ethyl-1-(6-methylpyridin-2-yl)-1H-pyrazol-5-yl]thieno[3,2-c]pyridine] yielded an IC50 of 21.5 nM. In other words, the double-digit nanomolar range.
